{"source": "patent US20240101584A1", "about": "“TARGETED DELIVERY OF 1,2,4,5 TETRAOXANE COMPOUNDS AND THEIR USES” (Westlake University, priority 2021, published 2024)", "key": {"HL-60 cells": {"test_system": "HL-60 cells", "test": "MTT viability assay, HL-60 cells", "assay_type": "cell-based", "conditions": "for IC50: Homo sapiens, HL-60"}, "HEY A8 cells": {"test_system": "HEY A8 cells", "test": "Protective effect of DFO and Fer-1 on adherent HEY A8 cells", "assay_type": "cell-based", "conditions": "24 h treatment", "description": "FIG. 4 is a bar graph showing the protective effect of DFO and Fer-1 on HeyA8 cancer cells after treatment with compound 48 for 24 h. *P≤0.01, ***P≤0.001 versus non-pretreated group. Data represent mean±SD, n=3 biologically independent samples. All P values were determined using two-tailed Student's t-test."}, "bEnd.3 cells": {"test_system": "bEnd.3 cells", "test": "MTT viability assay, bEnd.3 cells", "assay_type": "cell-based, mouse", "conditions": "Mus musculus, BEND3, 48 h incubation, mean, n = 3, read-out: IC50 against bEnd.3 cells", "description": "The anticancer activities of the exemplary compounds listed in Example 1 were tested against human cervix Hela cells, mammary breast cancer MDA-MB-231 cells, human hepatocellular HepG2 cells, human colorectal HCT116 cells, mammary ductal T47D cells, non-cancerous NIH3T3 cells, dog's kidney MDCK cells, and mouse brain bEnd.3 cells, respectively."}}, "note": "Read-outs that look alike come from different tables or passages of the source."}
{"smiles": "CC(C)(C)C1CCC2(CC1)OOC1(CCC(OC(=O)NCCC[N+](C)(Cc3ccccc3)Cc3ccccc3)CC1)OO2.[I-]", "note": "(centres unmarked) [Compound 48, N,N-dibenzyl-3-((((12-(tert-butyl)-7,8,15,16-tetraoxadispiro[5.2.59.26]hexadecan-3-yl)oxy)carbonyl)amino)-N-methylpropan-1-aminium iodide]", "values": [{"measurement": "IC50", "setting": "HL-60 cells; MTT, 48 h incubation, mean, n = 3, read-out: IC50 against HL-60 cells", "value": "1200 ± 900", "unit": "nM"}, {"measurement": "IC50", "setting": "HL-60 cells; Table 12b, read-out: IC50 HL-60", "value": "1200 ± 900", "unit": "nM"}, {"measurement": "IC50", "setting": "HL-60 cells; Table 13, experimental data, MTT, 48 hrs, n = 3, read-out: IC50 HL-60", "value": "1200 ± 900", "unit": "nM"}, {"measurement": "selectivity index (IC50 of NIH3T3 divided by IC50 on HL-60)", "setting": "HL-60 cells; Table 13, value in bracket", "value": "(>24)"}, {"measurement": "fold more cytotoxic to HL-60 cells than OZ439", "setting": "HL-60 cells; comparator OZ439", "value": "at least 9 fold"}, {"measurement": "fold more potent than RKA182 in HL-60 cells", "setting": "HL-60 cells; comparator RKA182", "value": 9, "unit": "fold"}, {"measurement": "effect of DFO or Fer-1 pretreatment on induced cell death, adherent HEY A8 cells", "setting": "HEY A8 cells", "value": "reversed the cell death"}]}
{"smiles": "CC(C)(C)C1CCC2(CC1)OOC1(CCC(OC(=O)NCCC[P+](c3ccccc3)(c3ccccc3)c3ccccc3)CC1)OO2.[Br-]", "note": "(centres unmarked) [Compound 37b, (3-((((12-(tert-butyl)-7,8,15,16-tetraoxadispiro[5.2.59.26]hexadecan-3-yl)oxy)carbonyl)amino)propyl)triphenylphosphonium bromide]", "values": [{"measurement": "IC50", "setting": "bEnd.3 cells", "value": 5200, "unit": "nM"}]}
